In patent publication US20080138812A1, “Screening Method For Competitive Hiv Rt Inhibitors” (priority 2005, published 2008):

Key:
[1] = molecular target: T1, HIV Reverse Transcriptase (Human immunodeficiency virus type 1 group M subtype B, UniProt P04585); experiment: in vitro inhibition of HIV reverse transcriptase in presence and absence of ATP or other nucleoside phosphates (kit TRK 1022); format: biochemical
T1 construct: purchased Amersham Life Sciences TRK 1022
Experimental: The assay was run using kit TRK 1022™ (Amersham Life Sciences) according to the manufacturer's instructions with slight modifications. Test compounds were diluted in steps of ¼ in 100% DMSO and subsequently diluted 1/50 in Medium A (RPMI 1640+10% fetal calf serum, […] gentamycin).
In each experiment three conditions were tested: wells filled with 25 μl of the above compound solutions, wells filled with 25 μl 2% DMSO in Medium A (RO) and wells filled with 100 μl Stopsolution and 25 μl DMSO in Medium A (RI). To each well was added 25.5 μl master mix (5 μl primer/template beads, 10 μl assay buffer, 0.5 μl tracer (50 μM [3H]-dTTP), 5 μl HIV RT enzyme solution (15 mU/μl), 5 μl Medium A). The plates were sealed, and incubated during 4 hours at 37° C. Subsequently, 100 μl stop solution was added to each well (except RI). The radioactivity was counted in a TopCount™.
For testing compound inhibition in the presence of ATP the same protocol as above was used but the Medium A in the master mix was replaced with Medium A containing 320 mM ATP.
The procedures of example 1 were repeated but ATP was changed by a number of other nucleoside phosphates. The following table lists the tested nucleoside phosphates and the IC50 values in μM of compound 1 obtained in the presence of the concerned nucleoside phosphate.

[2] = system: site-directed mutant of wild-type HIV-1 (HXB2) that contains the K103N and Y181C mutation; experiment: anti-viral cellular assay, MT4 cells, MTT readout, NNRTI-resistant mutant virus; format: cell-based; conditions: Human immunodeficiency virus 1, HXB2, MT4
Experimental: HIV- or mock-infected MT4 cells were incubated for five days in the presence of various concentrations of the test compound. At the end of the incubation period, the replicating virus in the control cultures had killed all HIV-infected cells in the absence of any inhibitor. Cell viability was determined by measuring the concentration of MTT, a yellow, water soluble tetrazolium dye that is converted to a purple, water insoluble formazan in the mitochondria of living cells only. Upon solubilization of the resulting formazan crystals with isopropanol, the absorbance of the solution was monitored at 540 nm. The values correlate directly to the number of living cells remaining in the culture at the completion of the five day incubation. The inhibitory activity of the compound was monitored on the virus-infected cells and was expressed as EC50 and EC90. These values represent the amount of the compound required to protect 50% and 90%, respectively, of the cells from the cytopathogenic effect of the virus. The toxicity of the compound was measured on the mock-infected cells and was expressed as CC50, which represents the concentration of compound required to inhibit the growth of the cells by 50%. […] Wherever results are reported as e.g. pEC50 or pCC50 values, the result is expressed as the negative logarithm of the result expressed as EC50 or CC50 respectively. […]

[3] = system: wild-type HIV-1 (LAI strain); experiment: anti-viral cellular assay, HIV-infected MT4 cells, MTT readout, wild-type virus; format: cell-based; conditions: Human immunodeficiency virus 1, 120 h, five days
Experimental: The test compounds are examined for anti-viral activity in a cellular assay performed according to the following procedure.
HIV- or mock-infected MT4 cells were incubated for five days in the presence of various concentrations of the test compound. At the end of the incubation period, the replicating virus in the control cultures had killed all HIV-infected cells in the absence of any inhibitor. Cell viability was determined by measuring the concentration of MTT, a yellow, water soluble tetrazolium dye that is converted to a purple, water insoluble formazan in the mitochondria of living cells only. Upon solubilization of the resulting formazan crystals with isopropanol, the absorbance of the solution was monitored at 540 nm. The values correlate directly to the number of living cells remaining in the culture at the completion of the five day incubation. The inhibitory activity of the compound was monitored on the virus-infected cells and was expressed as EC50 and EC90. These values represent the amount of the compound required to protect 50% and 90%, respectively, of the cells from the cytopathogenic effect of the virus. […] Wherever results are reported as e.g. pEC50 or pCC50 values, the result is expressed as the negative logarithm of the result expressed as EC50 or CC50 respectively.

[4] = molecular target: HIV RT (Human immunodeficiency virus type 1 group M subtype B, UniProt P04585); experiment: enzyme kinetics studies (1/v versus 1/[dTTP]); format: biochemical; conditions: 40-3 μM dTTP, 2-0 μM compound, poly(rA)oligo(dT); lines cross at Y-axis intercept
Experimental: The enzyme kinetics studies were carried out using a protocol involving a 4×5 matrix of varying substrate and inhibitor concentrations over ranges of 40-3 μM of dTTP and 2-0 μM of compound 1.
The reaction mixtures (50 μl) further contained 50 mM Tris.HCl (pH 7.8), 5 mM dithiothreitol, […], 500 μM EDTA, 150 mM KCl, 5 mM MgCl2, 0.15 mM of the template/primer poly(rA)oligo(dT) and 0.06% Triton X-100.
The reaction mixtures were incubated at 37° C. for 15 min, at which time 100 μl of calf thymus DNA (150 pg/ml), 2 ml of Na4P2O7 (0.1 M in 1 M HCl), and 2 ml of trichloroacetic acid (10% v/v) were added. The solutions were kept on ice for 30 min, after which the acid-insoluble material was washed and analyzed for radioactivity. When the reciprocal of the reaction velocity (1/v) is plotted against the reciprocal of the substrate concentration (1/[dTTP]) in the presence of different concentrations of compound 1, the graph (See FIG. 1) is obtained.

Compound: Cn1c2ccccc2c2c1cc(C#N)c(=O)n2-c1ccc([N+](=O)[O-])cc1 [Compound 1]
- IC50 ([1]; in the absence of ATP): 300 nM
- IC50 ([1]; in the presence of ADP): 23 nM
- IC50 ([1]; in the presence of AMP): 17.8 nM
- IC50 ([1]; in the presence of ATP (Medium A in master mix containing 320 mM ATP)): 16 nM
- IC50 ([1]; in the presence of ATPbgNH): 24.5 nM
- IC50 ([1]; in the presence of ATPgS): 12.4 nM
- IC50 ([1]; in the presence of CTP): 114 nM
- IC50 ([1]; in the presence of GTP): 70.4 nM
- IC50 ([1]; in the presence of PPi): 199 nM
- IC50 ([1]; in the presence of UTP): 51.9 nM
- EC50 [2]: 98 nM
- EC50 [3]: 45 nM
- mode of HIV RT inhibition [4]: competitive mode of HIV RT inhibition
